Experimental data from PubChem BioAssay AID248 (DTP/NCI, 2004).
“And” between values parts separate entries of the source, which are not always exact repeats. Identical values can stand only once. Inconclusive results and toxic doses are left out. Cut-off read from the data, not from the text of the source: active = T/C of 150% or more; inactive = T/C below 125%.

Test system: L1210 leukemia ip in BDF1 mice, survival T/C
Test: NCI In Vivo Anticancer Drug Screen. Data for tumor model L1210 Leukemia (intraperitoneal) in B6D2F1 (BDF1) mice
Settings: endpoint: mean survival time, higher = longer survival
Summary of the method: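 Mice bearing the transplanted tumor received compound or vehicle. Survival of the treated group was divided by that of the vehicle-treated control group to give the ratio.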

[1] = dose: 100.0 mg/kg/injection, schedule: Q01DX009 (ip), vehicle: saline
[2] = dose: 100.0 mg/kg/injection, schedule: Q04DX003 (ip), vehicle: saline
[3] = dose: 200.0 mg/kg/injection, schedule: Q01DX009 (ip), vehicle: saline
[4] = dose: 200.0 mg/kg/injection, schedule: Q04DX003 (ip), vehicle: saline
[5] = dose: 400.0 mg/kg/injection, schedule: Q01DX009 (ip), vehicle: saline
[6] = dose: 400.0 mg/kg/injection, schedule: Q04DX003 (ip), vehicle: saline
[7] = dose: 25.0 mg/kg/injection, schedule: Q04DX003 (ip), vehicle: saline
[8] = dose: 50.0 mg/kg/injection, schedule: Q04DX003 (ip), vehicle: saline
[9] = dose: 100.0 mg/kg/injection, schedule: Q01DX001 (ip), vehicle: saline
[10] = dose: 100.0 mg/kg/injection, schedule: Q04DX003 (ip), vehicle: saline with Tween-80
[11] = dose: 200.0 mg/kg/injection, schedule: Q04DX003 (ip), vehicle: saline with Tween-80
[12] = dose: 400.0 mg/kg/injection, schedule: Q04DX003 (ip), vehicle: saline with Tween-80
[13] = dose: 100.0 mg/kg/injection, schedule: Q01DX001 (ip), vehicle: carboxymethylcellulose (CMC)
[14] = dose: 200.0 mg/kg/injection, schedule: Q01DX001 (ip), vehicle: carboxymethylcellulose (CMC)
[15] = dose: 400.0 mg/kg/injection, schedule: Q01DX001 (ip), vehicle: carboxymethylcellulose (CMC)
[16] = dose: 100.0 mg/kg/injection, schedule: Q01DX009 (ip), vehicle: Klucel (hydroxypropylcellulose) (HPC)
[17] = dose: 100.0 mg/kg/injection, schedule: Q04DX003 (ip), vehicle: Klucel (hydroxypropylcellulose) (HPC)
[18] = dose: 200.0 mg/kg/injection, schedule: Q01DX009 (ip), vehicle: Klucel (hydroxypropylcellulose) (HPC)
[19] = dose: 200.0 mg/kg/injection, schedule: Q04DX003 (ip), vehicle: Klucel (hydroxypropylcellulose) (HPC)
[20] = dose: 400.0 mg/kg/injection, schedule: Q04DX003 (ip), vehicle: Klucel (hydroxypropylcellulose) (HPC)
[21] = dose: 25.0 mg/kg/injection, schedule: Q01DX001 (ip), vehicle: saline

Measured: T/C

C[C@H]1C[C@H]2[C@@H]3CC[C@](O)(C(=O)CO)[C@@]3(C)C[C@H](O)[C@]2(F)[C@@]2(C)C=CC(=O)C=C12
inactive: dose: 25.0 mg/kg/injection, schedule: Q01DX001 (sc), vehicle: steriod suspending solution 103 % of control | dose: 50.0 mg/kg/injection, schedule: Q01DX001 (sc), vehicle: steriod suspending solution 100 % of control | dose: 50.0 mg/kg/injection, schedule: Q04DX003 (sc), vehicle: Klucel (hydroxypropylcellulose) (HPC) 88 % of control | dose: 100.0 mg/kg/injection, schedule: Q01DX001 (sc), vehicle: steriod suspending solution 94 % of control | dose: 100.0 mg/kg/injection, schedule: Q04DX003 (sc), vehicle: Klucel (hydroxypropylcellulose) (HPC) 98 % of control | dose: 200.0 mg/kg/injection, schedule: Q01DX001 (sc), vehicle: steriod suspending solution 98 % of control | dose: 200.0 mg/kg/injection, schedule: Q04DX003 (sc), vehicle: Klucel (hydroxypropylcellulose) (HPC) 90 % of control

NNC(=O)CO
inactive: [1] 108 % of control | [2] 101 % of control | [3] 106 % of control | [4] 97 % of control | [5] 114 % of control | [6] 98 % of control

COC(=O)c1cn[nH]c1N1CC[N+](CCCl)=N1
inactive: dose: 25.0 mg/kg/injection, schedule: Q01DX009 (ip), vehicle: saline 97 % of control | [7] 102 % of control | dose: 50.0 mg/kg/injection, schedule: Q01DX009 (ip), vehicle: saline 106 % of control | [8] 104 % of control | [9] 100 % of control | [2] 104 % of control

CCCCOC(=O)c1ccc(OC(=O)Nc2ccc(OC)cc2Cl)cc1
inactive: dose: 100.0 mg/kg/injection, schedule: Q04DX002 (ip), vehicle: saline 110 % of control | dose: 200.0 mg/kg/injection, schedule: Q04DX002 (ip), vehicle: saline 104 % of control | dose: 400.0 mg/kg/injection, schedule: Q04DX002 (ip), vehicle: saline 100 % of control

Cc1ccc(N(C=O)N=O)cc1
inactive: [9] 101 % of control | dose: 200.0 mg/kg/injection, schedule: Q01DX001 (ip), vehicle: saline 98 % of control

N=C(N)SCC(CSC(=N)N)c1cnnc2ccccc12 (stereo not drawn)
inactive: [9] 102 % of control

Cc1nc(NC(=O)CBr)[nH]c(=O)c1CCC(C)C
inactive: [10] 107 % of control | [11] 100 % of control | [12] 88 % of control

Nc1ccc2nc[nH]c2c1
inactive: [1] 98 % of control | [2] 101 % of control | [3] 95 % of control | [4] 104 % of control | [5] 87 % of control | [6] 102 % of control

Cc1ccc(S(=O)(=O)Nc2ccc(OS(=O)(=O)c3ccc(C)cc3)cc2)cc1
inactive: [13] 108 % of control | [14] 100 % of control | [15] 100 % of control

O=C(/C=C\c1ccc([N+](=O)[O-])cc1)NCCCCNC(=O)/C=C/c1ccc([N+](=O)[O-])cc1
inactive: [9] 96 % of control

CC(=O)NCCCOc1ccc([N+](=O)[O-])cc1Cl
inactive: dose: 100.0 mg/kg/injection, schedule: Q01DX001 (ip), vehicle: Klucel (hydroxypropylcellulose) (HPC) 100 % of control | [16] 102 % of control | [17] 101 % of control | dose: 200.0 mg/kg/injection, schedule: Q01DX001 (ip), vehicle: Klucel (hydroxypropylcellulose) (HPC) 101 % of control | [18] 110 % of control and 112 % of control | [19] 113 % of control | [20] 103 % of control

CCCCNc1ncnc2c1ncn2C1OC(CO)C(O)C1O (stereo not drawn)
inactive: dose: 50.0 mg/kg/injection, schedule: Q01DX005 (ip), vehicle: saline 105 % of control

Cc1cccc2cc3c(ccc4ccccc43)c[n+]12
inactive: dose: 2.0 mg/kg/injection, schedule: Q01DX015 (ip), vehicle: carboxymethylcellulose (CMC) 101 % of control | dose: 4.0 mg/kg/injection, schedule: Q01DX015 (ip), vehicle: carboxymethylcellulose (CMC) 108 % of control | dose: 5.0 mg/kg/injection, schedule: Q04DX003 (ip), vehicle: Klucel (hydroxypropylcellulose) (HPC) 106 % of control | dose: 6.25 mg/kg/injection, schedule: Q01DX009 (ip), vehicle: saline with Tween-80 98 % of control | dose: 6.25 mg/kg/injection, schedule: Q04DX003 (ip), vehicle: saline 93 % of control | dose: 8.0 mg/kg/injection, schedule: Q01DX015 (ip), vehicle: carboxymethylcellulose (CMC) 105 % of control | dose: 10.0 mg/kg/injection, schedule: Q04DX003 (ip), vehicle: Klucel (hydroxypropylcellulose) (HPC) 103 % of control | dose: 12.5 mg/kg/injection, schedule: Q01DX001 (ip), vehicle: saline 98 % of control | dose: 12.5 mg/kg/injection, schedule: Q01DX009 (ip), vehicle: saline with Tween-80 115 % of control | dose: 12.5 mg/kg/injection, schedule: Q04DX003 (ip), vehicle: saline 97 % of control | dose: 20.0 mg/kg/injection, schedule: Q04DX003 (ip), vehicle: Klucel (hydroxypropylcellulose) (HPC) 100 % of control | [21] 97 % of control | [7] 97 % of control | dose: 40.0 mg/kg/injection, schedule: Q04DX003 (ip), vehicle: Klucel (hydroxypropylcellulose) (HPC) 97 % of control | dose: 80.0 mg/kg/injection, schedule: Q04DX003 (ip), vehicle: Klucel (hydroxypropylcellulose) (HPC) 100 % of control

COc1ccc2c(c1OC)CN(C)CCc1cc3c(cc1C(=O)C2)OCO3
inactive: [13] 96 % of control | [14] 96 % of control | [15] 100 % of control

Nc1nc(N)c(N=Nc2ccc(S(=O)(=O)Nc3nccs3)cc2)cc1N=Nc1ccccc1
inactive: [13] 94 % of control | [14] 92 % of control | [15] 105 % of control

CC(=O)N1CCCC1=O
inactive: [16] 100 % of control | [17] 96 % of control | [18] 100 % of control | [19] 102 % of control | dose: 400.0 mg/kg/injection, schedule: Q01DX009 (ip), vehicle: Klucel (hydroxypropylcellulose) (HPC) 95 % of control | [20] 102 % of control

COc1ccc(C=NC(C)(C)CO)cc1OC
inactive: dose: 100.0 mg/kg/injection, schedule: Q01DX001 (ip), vehicle: steriod suspending solution 108 % of control | dose: 200.0 mg/kg/injection, schedule: Q01DX001 (ip), vehicle: steriod suspending solution 103 % of control | dose: 400.0 mg/kg/injection, schedule: Q01DX001 (ip), vehicle: steriod suspending solution 101 % of control

CS(=O)(=O)OCCN(CCOS(C)(=O)=O)c1ccc(C=O)cc1
inactive: dose: 3.8 mg/kg/injection, schedule: Q01DX009 (ip), vehicle: saline 122 % of control | dose: 6.0 mg/kg/injection, schedule: Q01DX001 (ip), vehicle: saline 112 % of control | dose: 7.5 mg/kg/injection, schedule: Q01DX009 (ip), vehicle: saline 113 % of control | dose: 12.0 mg/kg/injection, schedule: Q01DX001 (ip), vehicle: saline 118 % of control | dose: 15.0 mg/kg/injection, schedule: Q01DX009 (ip), vehicle: saline 122 % of control | [21] 120 % of control | dose: 30.0 mg/kg/injection, schedule: Q01DX009 (ip), vehicle: saline 116 % of control | dose: 60.0 mg/kg/injection, schedule: Q01DX009 (ip), vehicle: saline 116 % of control and 118 % of control | dose: 75.0 mg/kg/injection, schedule: Q01DX001 (ip), vehicle: saline 104 % of control | dose: 99.0 mg/kg/injection, schedule: Q01DX009 (ip), vehicle: saline 110 % of control

CCCCCCCCCCCCCCCCCC(CCCCCCCCCCCCCCCC)CCCCCCCCCCCCCCCC
inactive: [13] 96 % of control | [14] 102 % of control | [15] 91 % of control

CCCCCCOC(=O)CCCCCCCCCCC(=O)CCCCCC
inactive: dose: 50.0 mg/kg/injection, schedule: Q01DX009 (ip), vehicle: Klucel (hydroxypropylcellulose) (HPC) 97 % of control | [8] 101 % of control | [16] 108 % of control | [2] 103 % of control | [18] 92 % of control | [4] 106 % of control

O=[N+]([O-])c1ccc(Cl)c(CNc2ncnc3nc[nH]c23)c1
inactive: [10] 92 % of control | [11] 93 % of control | [12] 106 % of control
